Source: ChEMBL document CHEMBL1201862, “PubChem BioAssay data set” (2004)
Calls of active or inactive are those of the source.

Experiments:
SUMO-activating enzyme [1] = target: T1, SUMO-activating enzyme (Homo sapiens, UniProt Q9UBT2); test: SUMOylation inhibitor hit validation, confirmation, SUMOylation inhibitor project, biochemical, AlphaScreen (AID 2018); assay type: functional
SUMO-activating enzyme [2] = target: T1, SUMO-activating enzyme; test: inhibitors of in vitro SUMOylation cascade, primary screen, biochemical, HTRF, uHTS (AID 2006); assay type: protein-complex assay
[3] = target: Aryl hydrocarbon receptor (Homo sapiens, UniProt P35869); test: Luminescence-based cell-based high throughput dose response assay for activators of the Aryl Hydrocarbon Receptor (AHR). [Related pubchem assays: 2796 (Primary screen (AHR activators in singlicate)), 2845 (Confirmation screen (AHR activators in triplicate)), 434939 (Counterscreen (PXR activators in triplicate)), 2804 (Summary (AHR activators))]; assay type: ADME
Sequence of Aryl hydrocarbon receptor (P35869 whole entry): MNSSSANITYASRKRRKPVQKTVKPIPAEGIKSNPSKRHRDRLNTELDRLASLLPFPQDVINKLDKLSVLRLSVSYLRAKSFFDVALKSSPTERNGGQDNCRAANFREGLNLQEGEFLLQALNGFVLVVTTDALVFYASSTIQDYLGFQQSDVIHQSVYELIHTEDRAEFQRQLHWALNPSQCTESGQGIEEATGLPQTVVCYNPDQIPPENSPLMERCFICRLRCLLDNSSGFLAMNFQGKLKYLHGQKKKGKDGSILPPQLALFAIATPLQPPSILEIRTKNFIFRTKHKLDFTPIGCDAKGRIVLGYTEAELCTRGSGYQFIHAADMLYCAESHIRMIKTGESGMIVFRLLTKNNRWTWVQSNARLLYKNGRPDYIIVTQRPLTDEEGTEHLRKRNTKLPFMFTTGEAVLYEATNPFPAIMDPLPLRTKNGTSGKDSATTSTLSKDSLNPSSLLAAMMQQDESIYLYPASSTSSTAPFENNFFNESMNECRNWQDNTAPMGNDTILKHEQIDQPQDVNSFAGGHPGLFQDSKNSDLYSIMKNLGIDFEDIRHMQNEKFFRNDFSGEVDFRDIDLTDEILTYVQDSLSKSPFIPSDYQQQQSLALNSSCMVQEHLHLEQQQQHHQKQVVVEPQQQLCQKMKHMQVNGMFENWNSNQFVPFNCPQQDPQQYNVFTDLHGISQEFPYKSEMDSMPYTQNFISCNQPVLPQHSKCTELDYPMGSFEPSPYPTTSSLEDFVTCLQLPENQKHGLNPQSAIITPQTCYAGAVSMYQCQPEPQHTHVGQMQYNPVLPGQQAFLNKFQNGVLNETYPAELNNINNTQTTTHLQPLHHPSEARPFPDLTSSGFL

[4] = target: T2, Calpain-2 catalytic subunit (Sus scrofa, UniProt P43367); test: pig calpain II inhibitor potency, dose response, biochemical, fluorogenic peptide substrate (AID 1420); assay type: functional
T2 sequence (P43367 whole entry): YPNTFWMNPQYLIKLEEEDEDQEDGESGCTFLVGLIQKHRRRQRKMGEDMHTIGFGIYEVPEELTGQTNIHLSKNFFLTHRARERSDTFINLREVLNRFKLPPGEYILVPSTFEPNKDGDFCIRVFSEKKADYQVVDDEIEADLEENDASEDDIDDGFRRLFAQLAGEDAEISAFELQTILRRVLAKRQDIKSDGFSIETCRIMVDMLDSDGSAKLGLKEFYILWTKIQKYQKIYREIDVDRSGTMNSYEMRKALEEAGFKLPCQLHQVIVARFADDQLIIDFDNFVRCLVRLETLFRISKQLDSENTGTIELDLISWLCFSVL

[5] = target: Voltage-gated inwardly rectifying potassium channel KCNH2 (Homo sapiens, UniProt Q12809); test: hERG protection from proarrhythmic block, potency, dose response, cell-based, thallium flux (AID 2121); assay type: ADME
Sequence of Voltage-gated inwardly rectifying potassium channel KCNH2 (Q12809 whole entry): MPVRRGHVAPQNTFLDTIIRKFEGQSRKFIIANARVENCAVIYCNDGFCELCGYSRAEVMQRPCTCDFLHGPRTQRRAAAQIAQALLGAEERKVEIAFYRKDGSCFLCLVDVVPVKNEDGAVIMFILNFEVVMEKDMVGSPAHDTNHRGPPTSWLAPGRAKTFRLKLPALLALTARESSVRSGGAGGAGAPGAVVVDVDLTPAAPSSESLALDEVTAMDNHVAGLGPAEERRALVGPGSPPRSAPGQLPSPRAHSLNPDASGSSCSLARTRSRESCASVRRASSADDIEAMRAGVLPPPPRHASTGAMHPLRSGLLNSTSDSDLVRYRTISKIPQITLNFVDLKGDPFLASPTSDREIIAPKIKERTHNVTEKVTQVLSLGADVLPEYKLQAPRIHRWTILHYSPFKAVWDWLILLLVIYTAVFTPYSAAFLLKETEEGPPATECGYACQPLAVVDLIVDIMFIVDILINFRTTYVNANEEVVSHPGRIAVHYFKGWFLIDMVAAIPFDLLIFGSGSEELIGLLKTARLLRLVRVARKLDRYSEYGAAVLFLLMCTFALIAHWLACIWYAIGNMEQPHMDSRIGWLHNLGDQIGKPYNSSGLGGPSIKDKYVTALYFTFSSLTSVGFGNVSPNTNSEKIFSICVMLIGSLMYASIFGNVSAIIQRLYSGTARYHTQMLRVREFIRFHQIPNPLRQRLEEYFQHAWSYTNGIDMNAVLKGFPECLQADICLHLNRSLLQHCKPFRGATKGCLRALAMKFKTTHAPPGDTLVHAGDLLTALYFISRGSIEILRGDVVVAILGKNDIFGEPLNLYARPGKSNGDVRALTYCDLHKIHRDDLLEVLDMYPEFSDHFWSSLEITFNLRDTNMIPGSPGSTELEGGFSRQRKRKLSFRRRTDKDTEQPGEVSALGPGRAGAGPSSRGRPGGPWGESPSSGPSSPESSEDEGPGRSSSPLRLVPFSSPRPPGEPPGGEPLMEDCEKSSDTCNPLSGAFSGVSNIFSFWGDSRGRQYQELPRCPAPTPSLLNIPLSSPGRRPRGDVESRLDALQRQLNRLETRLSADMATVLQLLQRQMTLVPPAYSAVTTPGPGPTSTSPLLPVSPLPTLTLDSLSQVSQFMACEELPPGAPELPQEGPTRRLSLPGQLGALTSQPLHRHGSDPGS

14-3-3 protein gamma = 14-3-3 protein gamma (Homo sapiens, UniProt P61981); test: modulators of 14-3-3 gamma client binding – dose response (AID 711); assay type: functional
Sequence of 14-3-3 protein gamma (P61981 whole entry): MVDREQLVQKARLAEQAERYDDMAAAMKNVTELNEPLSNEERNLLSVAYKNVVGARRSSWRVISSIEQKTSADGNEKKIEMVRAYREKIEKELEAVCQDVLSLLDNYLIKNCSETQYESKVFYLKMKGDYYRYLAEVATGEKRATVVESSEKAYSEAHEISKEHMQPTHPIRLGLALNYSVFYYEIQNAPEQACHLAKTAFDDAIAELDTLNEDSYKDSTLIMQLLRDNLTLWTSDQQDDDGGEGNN

[6] = target: T3, Short transient receptor potential channel 4 (Mus musculus, UniProt Q9QUQ5); test: mouse TRPC4 channel inhibitors, dose response, cell-based, HEK293 TRPC4/mu-opioid, Fluo-4 calcium (AID 434942); assay type: functional;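 also: potency of inhibitors blocking the TRPC4 calcium response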
T3 sequence (Q9QUQ5 whole entry): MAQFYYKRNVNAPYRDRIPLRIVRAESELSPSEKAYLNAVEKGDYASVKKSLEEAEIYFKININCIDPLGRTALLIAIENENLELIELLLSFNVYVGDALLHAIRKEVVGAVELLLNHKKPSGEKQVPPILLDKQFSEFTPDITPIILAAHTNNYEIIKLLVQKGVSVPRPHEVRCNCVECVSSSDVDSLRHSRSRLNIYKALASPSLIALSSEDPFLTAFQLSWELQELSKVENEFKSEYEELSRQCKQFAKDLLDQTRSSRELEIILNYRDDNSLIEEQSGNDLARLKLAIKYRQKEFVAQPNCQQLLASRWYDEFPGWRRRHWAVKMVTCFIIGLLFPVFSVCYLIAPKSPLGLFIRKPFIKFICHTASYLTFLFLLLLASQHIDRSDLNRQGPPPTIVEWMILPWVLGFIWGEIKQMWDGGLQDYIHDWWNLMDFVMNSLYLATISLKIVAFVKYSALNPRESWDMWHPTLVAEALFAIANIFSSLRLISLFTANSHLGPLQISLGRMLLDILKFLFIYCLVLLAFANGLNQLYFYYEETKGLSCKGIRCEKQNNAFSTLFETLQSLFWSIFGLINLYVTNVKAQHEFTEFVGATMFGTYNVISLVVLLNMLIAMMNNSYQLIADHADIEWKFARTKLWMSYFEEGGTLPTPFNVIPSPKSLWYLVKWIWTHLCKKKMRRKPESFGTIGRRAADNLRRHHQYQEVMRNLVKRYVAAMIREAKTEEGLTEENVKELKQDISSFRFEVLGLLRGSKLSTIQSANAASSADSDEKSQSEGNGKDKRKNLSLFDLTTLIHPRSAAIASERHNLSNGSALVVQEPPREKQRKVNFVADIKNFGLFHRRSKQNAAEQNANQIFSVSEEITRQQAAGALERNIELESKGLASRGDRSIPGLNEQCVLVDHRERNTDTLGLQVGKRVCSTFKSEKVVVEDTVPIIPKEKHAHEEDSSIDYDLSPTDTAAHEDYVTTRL

Estrogen receptor = target: T4, Estrogen receptor (Homo sapiens, UniProt P03372);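 also: potency for inhibiting coactivator peptide recruitment to the receptor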
T4 sequence (P03372 whole entry): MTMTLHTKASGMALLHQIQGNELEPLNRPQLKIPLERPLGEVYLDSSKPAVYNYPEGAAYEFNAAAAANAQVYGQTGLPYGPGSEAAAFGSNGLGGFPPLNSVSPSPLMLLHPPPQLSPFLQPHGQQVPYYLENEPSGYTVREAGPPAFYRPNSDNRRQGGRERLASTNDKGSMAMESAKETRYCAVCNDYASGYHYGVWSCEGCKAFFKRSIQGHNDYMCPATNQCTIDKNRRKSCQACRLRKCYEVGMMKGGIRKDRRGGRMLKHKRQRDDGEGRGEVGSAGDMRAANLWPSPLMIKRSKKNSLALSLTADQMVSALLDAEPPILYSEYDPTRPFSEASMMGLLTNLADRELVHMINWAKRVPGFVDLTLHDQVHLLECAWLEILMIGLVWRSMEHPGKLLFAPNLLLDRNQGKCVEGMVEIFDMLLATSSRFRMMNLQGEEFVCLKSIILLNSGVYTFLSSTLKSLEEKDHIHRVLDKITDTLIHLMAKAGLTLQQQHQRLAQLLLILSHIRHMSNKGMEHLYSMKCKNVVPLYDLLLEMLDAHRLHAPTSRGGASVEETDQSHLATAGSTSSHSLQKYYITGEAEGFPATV

Estrogen receptor beta [7] = target: T5, Estrogen receptor beta (Homo sapiens, UniProt Q92731);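 also: recombinant ER-beta bound to coactivator SRC1 peptide in presence of estradiol agonist; inhibitors block coactivator peptide binding and lower the FRET signal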
T5 sequence (Q92731 whole entry): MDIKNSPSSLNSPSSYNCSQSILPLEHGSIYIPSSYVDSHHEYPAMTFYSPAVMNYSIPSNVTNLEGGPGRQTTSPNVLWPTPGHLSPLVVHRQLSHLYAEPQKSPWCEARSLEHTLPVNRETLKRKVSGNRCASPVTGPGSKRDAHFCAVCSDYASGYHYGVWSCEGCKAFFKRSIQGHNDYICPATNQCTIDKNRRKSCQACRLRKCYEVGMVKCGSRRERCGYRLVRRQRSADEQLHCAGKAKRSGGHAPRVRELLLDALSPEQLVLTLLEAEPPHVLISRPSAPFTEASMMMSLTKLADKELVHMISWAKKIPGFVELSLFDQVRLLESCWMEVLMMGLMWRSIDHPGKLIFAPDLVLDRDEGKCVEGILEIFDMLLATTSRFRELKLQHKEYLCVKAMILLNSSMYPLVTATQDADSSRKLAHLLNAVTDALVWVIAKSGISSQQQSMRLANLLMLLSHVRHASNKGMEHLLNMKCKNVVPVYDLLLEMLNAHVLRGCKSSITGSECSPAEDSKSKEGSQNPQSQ

Estrogen receptor beta [8] = target: T5, Estrogen receptor beta; test: ERβ–SRC-3 coactivator interaction inhibitors, confirmation, orthogonal assay, biochemical, ELISA, streptavidin-HRP readout (AID 1060)
[9] = target: Protein-tyrosine kinase 2-beta (Homo sapiens, UniProt Q14289);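 also: potency of inhibitors of PYK2 kinase phosphorylation of poly-GT substrate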
[10] = M. tuberculosis H37Rv growth inhibitors, H37Rv strain (AID 1626); assay type: functional
[11] = target: Transitional endoplasmic reticulum ATPase (Homo sapiens, UniProt P55072, C522A); test: Luminescence counterscreen assay for p97 inhibitors: dose response biochemical high throughput screening assay to identify inhibitors of the C522A mutant p97 ATPase: synthesized compounds. [Related pubchem assays: 1481, 1517, 1551 ]
[12] = target: Transitional endoplasmic reticulum ATPase (Homo sapiens, UniProt P55072); test: Luminescence dose response biochemical high throughput screening assay for inhibitors of the p97 ATPase: synthesized compounds. [Related pubchem assays: 1481, 1517 ]
[13] = target: 5-hydroxytryptamine receptor 1A (Homo sapiens, UniProt P08908); assay type: functional
[14] = test system: Streptococcus sp. 'group A'; test: growth inhibition of control SK(-) GAS strain, dose response, counter-screen for streptokinase expression inhibitor project, luminescence, kanamycin, BacTiterGlo, confirmation (AID 1900); assay type: functional, organism-based
[15] = inhibitors of intracellular T. cruzi replication, confirmation, NIH3T3 host cells, beta-gal luminescence (AID 2044); assay type: functional, cell-based;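 also: intracellular parasites grown in NIH/3T3 mouse fibroblasts as host cells; luminescent beta-galactosidase reporter signal from transgenic T. cruzi replicating inside host cells; inhibitors lower the luminescence signal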
Galanin receptor type 2 = Galanin receptor type 2 (Homo sapiens, UniProt O43603); test: Dose Response cell-based high-throughput screening assay to identify agonists of galanin receptor 2 (GALR2). [Related pubchem assays: 864 ]; assay type: functional
Sequence of Galanin receptor type 2 (O43603 whole entry): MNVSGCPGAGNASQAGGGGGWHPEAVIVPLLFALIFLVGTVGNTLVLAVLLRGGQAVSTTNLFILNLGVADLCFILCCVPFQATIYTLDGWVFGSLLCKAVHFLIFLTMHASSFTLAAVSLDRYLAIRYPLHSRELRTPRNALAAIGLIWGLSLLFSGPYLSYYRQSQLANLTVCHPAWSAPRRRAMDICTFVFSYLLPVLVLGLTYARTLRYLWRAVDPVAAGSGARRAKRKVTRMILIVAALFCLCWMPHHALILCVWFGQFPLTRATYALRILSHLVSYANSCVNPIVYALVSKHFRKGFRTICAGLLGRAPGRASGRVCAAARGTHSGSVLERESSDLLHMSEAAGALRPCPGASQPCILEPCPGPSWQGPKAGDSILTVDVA

[16] = cytotoxicity toward NIH3T3 fibroblasts, dose response, counter-screen, cell-based, ATP luminescence, mouse fibroblasts (AID 2010); assay type: functional;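 also: cells exposed to compound for about 90 hours before reading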
Streptococcus = test: Group A Streptococcus viability loss, dose response, counter-screen for streptokinase expression inhibitor project, luminescence, BacTiterGlo (AID 1915); assay type: functional, organism-based;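 also: potency for reduction of bacterial viability or growth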
INS1 = test: beta cell apoptosis inhibitors, cytokine rescue, dose response, luminescence, retest (AID 449756); assay type: functional, cell-based; settings: Rattus norvegicus;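 also: cell death triggered by IL-1 beta plus TNF-alpha plus IFN-gamma mixture; protective hits raise ATP signal compared with cytokine alone wells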
[17] = Shn3 3'UTR reporter inhibitors, dose response, cell-based, Clone20 osteoblasts, firefly luciferase, cherry-picked (AID 624132); assay type: functional;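 also: firefly luciferase luminescence from reporter carrying the Shn3 3'UTR in osteoblasts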
[18] = HepG2 cell cytotoxicity, dose response, cytotoxicity control for Shn3 inhibitor project, CellTiter-Glo, cherry-picked (AID 624134); assay type: functional, cell-based
[19] = control 3'UTR Renilla luciferase suppression, dose response, counter-screen for Shn3 inhibitor project, cell-based, Clone20-Shn3RL, cherry-picked (AID 624133); assay type: functional
[20] = target: T6, Probable nicotinate-nucleotide adenylyltransferase (Staphylococcus aureus (strain N315), UniProt P65502); assay type: functional, Staphylococcus aureus subsp. aureus N315;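 as to IC50 Mean: confirmatory dose-response retesting of NadD inhibitor hits first found in an ultra-high-throughput screen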
T6 sequence (P65502 whole entry): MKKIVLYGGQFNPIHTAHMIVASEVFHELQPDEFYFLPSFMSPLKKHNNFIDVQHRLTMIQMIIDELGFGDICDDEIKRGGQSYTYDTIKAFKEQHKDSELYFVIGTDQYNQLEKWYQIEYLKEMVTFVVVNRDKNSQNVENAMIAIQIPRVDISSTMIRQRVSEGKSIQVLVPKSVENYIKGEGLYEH

[21] = target: T6, Probable nicotinate-nucleotide adenylyltransferase; assay type: functional, Staphylococcus aureus subsp. aureus N315; settings: read-out: IC50_Mean
[22] = THP-1 cell cytotoxicity, dose response, cytotoxicity control for Vif-APOBEC3G degradation inhibitor project, THP-1 cells (AID 1117359); assay type: functional; settings: Human immunodeficiency virus 1, THP-1
[23] = inhibitors of Vif binding to APOBEC3G peptide, primary screen, biochemical, TR-FRET, GST-Vif 1-94, biotin-A3G peptide, dose response retest (AID 1117319); assay type: functional;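 also: TR-FRET signal of purified GST-Vif binding a biotinylated A3G peptide; inhibitors lower the FRET signal by blocking Vif and A3G binding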
[24] = target: Luciferin 4-monooxygenase (Photinus pyralis, UniProt P08659); test: Counter Screen for Luciferase-based Assay Positives. [Related pubchem assays: 620, 618, 411 ]
Sequence of Luciferin 4-monooxygenase (P08659 whole entry): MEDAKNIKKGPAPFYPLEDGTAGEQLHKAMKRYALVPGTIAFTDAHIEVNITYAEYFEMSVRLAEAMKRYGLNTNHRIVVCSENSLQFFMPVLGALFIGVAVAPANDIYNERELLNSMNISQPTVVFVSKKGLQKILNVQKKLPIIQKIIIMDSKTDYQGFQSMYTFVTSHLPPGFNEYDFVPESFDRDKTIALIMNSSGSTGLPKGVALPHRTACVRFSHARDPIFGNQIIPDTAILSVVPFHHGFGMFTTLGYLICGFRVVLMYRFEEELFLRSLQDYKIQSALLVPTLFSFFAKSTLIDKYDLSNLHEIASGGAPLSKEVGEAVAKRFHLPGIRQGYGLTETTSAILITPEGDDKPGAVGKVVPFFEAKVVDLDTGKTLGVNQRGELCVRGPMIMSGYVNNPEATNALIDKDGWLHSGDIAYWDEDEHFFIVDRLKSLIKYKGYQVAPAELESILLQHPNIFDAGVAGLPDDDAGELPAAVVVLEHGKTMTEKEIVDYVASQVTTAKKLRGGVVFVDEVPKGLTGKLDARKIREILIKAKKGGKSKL

HT-1080 = test: cytotoxicity in HT1080 fibrosarcoma cells, cell-based, fluorescence readout (AID 620); assay type: functional; settings: Homo sapiens
[25] = Late stage counterscreen results from the probe development effort to identify activators of signal transducer and activator of transcription 1 (STAT1): luminescence-based cell-based dose response assay to identify cytotoxic compounds.; assay type: functional
Troponin, cardiac muscle = Troponin, cardiac muscle (Homo sapiens, UniProt P19429+P45379+P63316); test: Fluorescence-based biochemical high throughput dose response assay for activators of the calcium sensitivity of cardiac Regulated Thin Filaments (RTF). [Related pubchem assays (depositor defined):AID493008, AID493018, AID504382, AID504383]; assay type: protein-complex assay
[26] = target: T7, Rac GTPase-activating protein 1 (Homo sapiens, UniProt Q9H0H5); test: MgcRacGAP GTPase-activating activity inhibitors, confirmation, biochemical, ADP Hunter fluorescence, primary and confirmatory (AID 624330); assay type: functional
T7 sequence (Q9H0H5 whole entry): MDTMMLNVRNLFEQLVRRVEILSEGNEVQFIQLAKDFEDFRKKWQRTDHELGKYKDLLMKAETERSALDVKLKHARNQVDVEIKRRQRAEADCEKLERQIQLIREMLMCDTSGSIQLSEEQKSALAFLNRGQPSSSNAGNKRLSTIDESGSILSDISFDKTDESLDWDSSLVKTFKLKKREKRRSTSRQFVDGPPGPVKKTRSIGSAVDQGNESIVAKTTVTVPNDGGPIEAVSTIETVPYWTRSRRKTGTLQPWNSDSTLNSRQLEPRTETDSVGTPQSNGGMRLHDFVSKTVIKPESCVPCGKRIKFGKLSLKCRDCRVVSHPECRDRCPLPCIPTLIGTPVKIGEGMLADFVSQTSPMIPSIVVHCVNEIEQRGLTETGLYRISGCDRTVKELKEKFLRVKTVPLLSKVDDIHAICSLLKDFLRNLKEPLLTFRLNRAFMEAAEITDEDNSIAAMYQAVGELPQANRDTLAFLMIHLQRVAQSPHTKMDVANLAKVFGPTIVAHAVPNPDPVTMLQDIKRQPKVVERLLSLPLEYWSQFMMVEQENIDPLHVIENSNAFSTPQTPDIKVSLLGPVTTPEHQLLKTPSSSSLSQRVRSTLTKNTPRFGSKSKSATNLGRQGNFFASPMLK

T1 sequence (Q9UBE0 whole entry): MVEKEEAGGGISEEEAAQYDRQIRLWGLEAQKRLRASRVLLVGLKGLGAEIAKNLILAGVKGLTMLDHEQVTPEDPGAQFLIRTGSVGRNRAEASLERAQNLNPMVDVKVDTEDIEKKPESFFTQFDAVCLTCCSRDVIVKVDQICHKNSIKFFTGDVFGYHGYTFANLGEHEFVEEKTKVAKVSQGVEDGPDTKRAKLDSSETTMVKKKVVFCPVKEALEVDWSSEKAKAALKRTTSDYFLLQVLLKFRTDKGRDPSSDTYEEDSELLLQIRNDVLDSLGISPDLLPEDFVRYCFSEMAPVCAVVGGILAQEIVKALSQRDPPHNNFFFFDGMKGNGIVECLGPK
T1 sequence (Q9UBT2 whole entry): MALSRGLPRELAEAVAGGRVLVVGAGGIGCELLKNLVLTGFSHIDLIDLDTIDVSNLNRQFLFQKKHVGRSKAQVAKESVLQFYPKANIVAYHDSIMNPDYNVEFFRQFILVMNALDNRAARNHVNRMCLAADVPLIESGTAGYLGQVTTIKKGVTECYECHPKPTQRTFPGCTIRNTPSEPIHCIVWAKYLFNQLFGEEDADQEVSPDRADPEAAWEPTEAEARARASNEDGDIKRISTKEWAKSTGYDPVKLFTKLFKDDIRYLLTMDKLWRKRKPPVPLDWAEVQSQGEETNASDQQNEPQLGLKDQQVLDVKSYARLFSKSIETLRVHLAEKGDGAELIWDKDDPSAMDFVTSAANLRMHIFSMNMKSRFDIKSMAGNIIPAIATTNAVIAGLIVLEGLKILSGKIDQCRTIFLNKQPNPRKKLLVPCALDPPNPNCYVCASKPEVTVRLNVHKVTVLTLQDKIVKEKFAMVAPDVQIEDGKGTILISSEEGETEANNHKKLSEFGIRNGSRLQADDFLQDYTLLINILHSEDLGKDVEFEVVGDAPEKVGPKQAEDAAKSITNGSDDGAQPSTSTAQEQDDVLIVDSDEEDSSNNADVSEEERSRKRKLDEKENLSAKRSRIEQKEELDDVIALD

O=c1[nH]/c(=N\c2ccc(Br)cc2)sc2ccc([N+](=O)[O-])cc12
IC50 (SUMO-activating enzyme [1]): 34.6 µM (active)
IC50 (SUMO-activating enzyme [2]): 15.9 µM (active)
EC50 [3]: 5.11 µM (active)

S=c1[nH]nc(CSc2nc3ccccc3s2)n1C1CCCCC1
IC50 [4]: 14.3 µM (not active)
EC50 [5]: 9.55 µM (active)

COc1ccc(Nc2cc(C)nc3ccccc23)cc1
IC50 (14-3-3 protein gamma): > 50 µM (not active)
EC50 [6]: 2.99 µM (active)

CC(=O)c1ccc(NCC(=O)N2CCN(c3ccccc3)CC2)cc1
IC50 (Estrogen receptor): 5.02 µM (active)
IC50 (Estrogen receptor beta [7]): 2.64 µM (active)
IC50 (Estrogen receptor beta [8]): 37.1 µM (not active)
IC50 [9]: > 69.5 µM (not active)

Cn1cc(CN2CCN(c3ccc(Cl)cn3)CC2)c(-c2ccccc2F)n1
IC50 [10]: > 100 µM (active)

N#Cc1ccc(Nc2nc(-c3cccc(Br)c3)cs2)cc1
IC50 [11]: > 50 µM (not active)
IC50 [12]: > 50 µM (not active)

C1=C(c2c[nH]c3ccccc23)CCNC1
EC50 [13]: > 50 µM (not active)

Cc1cccc2sc(NNC(=O)c3ccc(S(=O)(=O)N4CC(C)CC(C)C4)cc3)nc12 (stereo not drawn)
EC50 [14]: 1.18 µM (active)
EC50 [15]: 1.22 µM (active)
EC50 (Galanin receptor type 2): > 55.7 µM (not active)
EC50 [16]: 7.47 µM (active)
EC50 (Streptococcus): 4.98 µM (active)
AC50 (INS1): 1.73 µM (active)
AC50 [17]: 2.57 µM (active)
AC50 [18]: 5.61 µM (active)
AC50 [19]: 5.72 µM (active)
IC50 [20]: 8.16 µM (active)
IC50 [21]: 42.1 µM (active)
CC50 [22]: 2.27 µM (active)
IC50 [23]: > 100 µM (active)

N#C/C(=C\c1ccc(N2CCOCC2)o1)c1nc2ccccc2[nH]1
EC50 [24]: > 100 µM (not active)
EC50 (HT-1080): > 50 µM (not active)
IC50 [25]: > 55.7 µM (not active)
EC50 (Troponin, cardiac muscle): 0.5 µM (active)
IC50 [26]: 12.2 µM (active)
